Assay results from PMC4364612.
Where two headings read alike, the source gives them in different places. Ends that are not written are not given here. Peptide text beside a SMILES is read from it. * marks the point of attachment. Cbz = O=C(OCc1ccccc1)*

Assays:
[1] = Intracellular stability of optimal epitopes, immature DC extracts; assay type: in vitro ADME, Human; conditions: RP-HPLC; for stability rate at pH4.0 relative to pH7.4: immature DC extract, pH4.0, 37°C, 60-minute incubation, three independent experiments; for half-life: human, cells or culture medium, 1nmol peptide, 15μg immature DC whole cell extract, aliquots 0, 10, 30, 60 minutes, one-phase exponential decay
Protocol: The proteolytic activities of cathepsin S (cell, 50μM; extracts, 10μM Z-VVR-AMC), omni cathepsins (cell, 50μM; extracts, 50μM Z-FR-AMC), cathepsin D&E (extracts, 10μM Mca-[…]-Dnp, Enzo Life Sciences), and cathepsin B (extracts, 50μM Z-RR-AMC, Bachem) were measured by cleavage of peptide-specific fluorogenic substrates. […] For cell extracts, equivalent amounts as determined by total protein concentration were used in reaction buffer (50mM sodium chloride, 50mM potassium phosphate, 2mM DTT, 2mM EDTA; pH 7.4, pH5.5 or pH4.0, respectively). The rate of fluorescence emission, which is proportional to the proteolytic activity, was measured every 5 minutes at 37°C in a Victor-3 Plate Reader (Perkin Elmer).
One nmol of highly purified peptide was degraded in 15μg of whole cell extracts at 37°C in degradation buffer at pH7.4 or pH4.0 [37]. Aliquots were taken at 0, 10, 30, and 60 minutes, and the reaction was stopped with 2.5μL of 100% TFA. The remaining peptide at each time point was quantified by reversed-phase HPLC (RP-HPLC; Waters). 100% represents the amount of peptide detected at time point 0 calculated as the area under the peptide peak. A stability rate of each peptide was calculated by a nonlinear regression (one-phase exponential decay) of the degradation profile obtained over a 60-minute incubation. Peptides incubated in buffer without cell extracts were used as controls.

[2] = Intracellular stability of optimal epitopes, DC and Mø extracts; assay type: in vitro ADME, Human; conditions: 37°C
Protocol: One nmol of highly purified peptide was degraded in 15μg of whole cell extracts at 37°C in degradation buffer at pH7.4 or pH4.0 [37]. Aliquots were taken at 0, 10, 30, and 60 minutes, and the reaction was stopped with 2.5μL of 100% TFA. The remaining peptide at each time point was quantified by reversed-phase HPLC (RP-HPLC; Waters). 100% represents the amount of peptide detected at time point 0 calculated as the area under the peptide peak. A stability rate of each peptide was calculated by a nonlinear regression (one-phase exponential decay) of the degradation profile obtained over a 60-minute incubation [35, 44]. Peptides incubated in buffer without cell extracts were used as controls.

[3] = In vitro peptide degradation assay with mass spectrometry, immature DC extracts; assay type: in vitro ADME, Human; conditions: immature DC whole cell extracts, 120 minutes, pH7.4, pH5.5 and pH4.0, 37°C; LC-MS cleavage patterns; representative of two experiments
[4] = test system: immature DCs presenting to epitope-specific CTL clones; test: ELISPOT cross-presentation assay with immature DCs; assay type: cell-based, Human; conditions: IFN-gamma ELISPOT, n≥5 donors; for change of B57-KF11 cross-presentation (CTL response) upon inhibitor pretreatment, increase: immature DCs pre-incubated 45 minutes with 10μM MG132, 5μM E64 or epoxomicin before p24 protein; for change of B57-ISW9 cross-presentation (CTL response) upon inhibitor pretreatment, increase: immature DCs pre-incubated 45 minutes with 10μM MG132 or 5μM E64 before p24 protein
Protocol: (§1) Human peripheral blood mononuclear cells (PBMCs) were isolated by Ficoll-Hypaque (Sigma-Aldrich) density centrifugation. Monocytes were enriched using CD14+ magnetic isolation kits (StemCell) and differentiated into DCs and Møs during a 6-day culture. DCs were cultured in AIM-V media with 1% human serum AB (Gemini Bio-Products) supplemented with 20ng/mL IL-4 and 10ng/mL GM-CSF (CellGenix). On days 2 and 4, fresh IL-4 and GM-CSF were added. Møs were cultured in ultra low attachment plates (Corning) in AIM-V media with 10% human serum AB. Where indicated, maturation of DCs and Møs was induced by TLR ligand stimulation with 2μg/mL LPS, 1μg/mL CL097, or 1μg/mL R848 (Invivogen) for 2 days. Epitope-specific CTL clones were maintained in the presence of 50U/mL IL-2, using 0.1μg/mL CD3-specific mAb 12F6, and irradiated feeder cells as stimulus for T cell proliferation.
(§2) Immature DCs and Møs were exposed to recombinant HIV-1 p24-protein, HIV-1 p55-protein or control protein (Protein Sciences Corporation, USA) for 1hr at 37°C. Where indicated, cells were pre-incubated for 45 minutes with inhibitors for proteasome (10μM MG132 (Enzo Life Sciences)) or cysteine proteases (5μM E64 (Sigma-Aldrich)). Cells pulsed with equivalent molar concentrations of the optimal epitopes were used as controls for antigen presentation and CTL clone specificity. DCs and Møs were thoroughly washed and cultured overnight with epitope-specific CTL clones at a 2:1 effector-to-target ratio in 96-well plates (Millipore) coated with anti-IFN-y mAb 1-D1K (Mabtech). ELISPOT plates were washed and developed as described previously.

[5] = test system: immature Møs presenting to epitope-specific CTL clones; test: ELISPOT cross-presentation assay with immature Møs; assay type: cell-based, Human; conditions: IFN-gamma ELISPOT, n≥5 donors; for change of B57-ISW9 cross-presentation upon inhibitor pretreatment: immature Møs pre-incubated 45 minutes with 10μM MG132 or 5μM E64 before p24 protein; for change of B57-KF11 CTL responses upon inhibitor pretreatment, decrease / change of B57-TW10 CTL responses upon inhibitor pretreatment, decrease: immature Møs pre-incubated with 10μM MG132, epoxomicin or 5μM E64 before p24 protein
Protocol: as §1, §2

Compound	stability rate at pH4.0 relative to pH7.4 [1]	change of B57-KF11 cross-presentation (CTL response) upon inhibitor pretreatment, increase [4]	change of B57-KF11 CTL responses upon inhibitor pretreatment, decrease [5]	change of B57-TW10 CTL responses upon inhibitor pretreatment, decrease [5]	also measured
FSPEVIPMF [B57-FF9]	dramatically reduced				stability rate compared with overlapping epitope B57-KF11 ([2]; extracts of DCs and Møs, RP-HPLC, three independent experiments): comparable
CC[C@H](C)[C@H](NC(=O)[C@H](CCCCN)NC(=O)[C@H](CCC(=O)O)NC(=O)[C@H](Cc1c[nH]c2ccccc12)NC(=O)[C@@H](N)CCCNC(=N)N)C(=O)N[C@@H](CCCNC(=N)N)C(=O)N[C@@H](CC(C)C)C(=O)N[C@@H](CCCNC(=N)N)C(=O)N1CCC[C@H]1C(=O)NCC(=O)NCC(=O)N[C@@H](CCCCN)C(=O)N[C@@H](CCCCN)C(=O)N[C@@H](CCCCN)C(=O)N[C@@H](Cc1ccc(O)cc1)C(=O)N[C@@H](CCCCN)C(=O)N[C@@H](CC(C)C)C(=O)O [HIV-1 p17-derived peptide]					degradation of A03-RK9 within the p17-derived peptide [3]: minimal degradation
CC[C@H](C)[C@H](NC(=O)[C@H](C)N)C(=O)N[C@@H](Cc1ccccc1)C(=O)N[C@@H](CCC(N)=O)C(=O)N[C@@H](CO)C(=O)N[C@@H](CO)C(=O)N[C@@H](CCSC)C(=O)N[C@H](C(=O)N[C@@H](CCCCN)C(=O)O)[C@@H](C)O [A11-ATK9]	dramatically reduced				
CC[C@H](C)[C@H](NC(=O)[C@H](CCC(N)=O)NC(=O)[C@H](CCC(=O)O)NC(=O)[C@H](CCC(N)=O)NC(=O)[C@H](CC(C)C)NC(=O)[C@H](CC(N)=O)NC(=O)[C@H](CO)NC(=O)[C@@H](N)[C@@H](C)O)C(=O)N[C@@H](C)C(=O)N[C@@H](Cc1c[nH]c2ccccc12)C(=O)O					cytosolic and lysosomal stability relative to B57-TW10, fold reduced ([2]; 1nmol peptide, 15μg immature DC or Mø extracts, pH7.4 and pH4.0 (both compartments), RP-HPLC stability rate, mean of three independent experiments): 7- to 8 fold
CC(C)C[C@@H](C=O)NC(=O)[C@H](CC(C)C)NC(=O)[C@H](CC(C)C)NC(=O)OCc1ccccc1 [MG132] (Cbz-Leu-Leu-Leu-aldehyde)		4 fold	2 fold	3 fold	change of B57-TW10-specific CTL responses upon inhibitor pretreatment, decrease ([4]; immature DCs pre-incubated 45 minutes with 10μM MG132 before p24 protein): approximately 3 fold; change of B57-ISW9 cross-presentation (CTL response) upon inhibitor pretreatment, increase [4]: 43 fold; change of B57-ISW9 cross-presentation upon inhibitor pretreatment [5]: not affected
CC[C@H](C)[C@H](NC(=O)[C@@H](NC(=O)[C@H](CCC(=O)O)NC(=O)[C@@H]1CCCN1C(=O)[C@H](CO)NC(=O)[C@H](Cc1ccccc1)NC(=O)[C@H](C)NC(=O)[C@@H](N)CCCCN)C(C)C)C(=O)N1CCC[C@H]1C(=O)N[C@@H](CCSC)C(=O)N[C@@H](Cc1ccccc1)C(=O)O [B57-KF11]	dramatically reduced				half-life ([1]; pH 4, degradation buffer pH4.0, 37°C, read-out: half-life at pH4.0): 1.9 min; half-life ([1]; pH 7.4, degradation buffer pH7.4, 37°C, read-out: half-life at pH7.4): 20 min; fold faster degraded at pH4.0 than at pH7.4 ([1]; immature DC whole cell extract, 37°C, ratio of half-lives): 10 fold
CC(C)C[C@H](NC(=O)[C@H]1O[C@@H]1C(=O)O)C(=O)NCCCCN=C(N)N [E64]		no effect	did not affect	did not affect	change of B57-ISW9 cross-presentation (CTL response) upon inhibitor pretreatment, increase [4]: no effect; change of B57-ISW9 cross-presentation upon inhibitor pretreatment [5]: did not affect
ISPRTLNAW [B57-ISW9]	dramatically reduced				
CC[C@H](C)[C@H](NC(=O)[C@H]([C@@H](C)CC)N(C)C(C)=O)C(=O)N[C@H](C(=O)N[C@@H](CC(C)C)C(=O)[C@@]1(C)CO1)[C@@H](C)O [epoxomicin]		11 fold	2 fold	3 fold	
